{"source": "patent US20060069069A1", "about": "“Methods and compositions for the administration of calcium chelators, bisphosponates and/or citrate compounds and their pharmaceutical uses” (Nanobac Pharmaceuticals, Inc., priority 2004, published 2006)", "origin": "cited, not measured here", "tested_on": "bone resorption", "details": "versus etidronate; both in vitro and in vivo", "data": [{"compound": "NCCCC(O)(P(=O)(O)O)P(=O)(O)O", "note": "[alendronate]", "values": [{"measurement": "potency relative to etidronate for the prevention of bone resorption", "result": "approximately 700 fold"}]}]}
